Experimental data published in patent publication US20260183411A1, “TARGETING SORTILIN” (priority 2024, published 2026).
Bridges are numbered along the chain shown (N, C = ends). Where no end group is shown, it is not given here. [ ]: non-standard residue; d: D form. conjugation handle = not defined here; tBuAla = CC(C)(C)C[C@H](N)C(=O)O; Tle = CC(C)(C)[C@H](N)C(=O)O; Nle = CCCC[C@H](N)C(=O)O

Tests used:
[1] = system: housekeeping gene mRNA; assay: Rat CNS delivery, intrathecal, 28-day (RT-qPCR); type: in vivo; conditions: IT, 900 μg siRNA
Protocol: SORT1 peptide 3 conjugate was prepared as described above. The SORT1 peptide 3 conjugate or a benchmark lipid were administered to rats intrathecally (IT), by injection into the spinal cord, for 28 days at 900 μg of siRNA. The delivery efficacy of the SORT1 peptide 3 conjugate was measured by measuring the amount of the housekeeping gene mRNA remaining in tissue samples at the end of the 28-day dosing regimen via RT-qPCR of samples from various parts of the rat CNS: lumbar spinal cord (LSC), cervical spinal cord (CSC), brainstem (BS), cerebellum (CB), somatosensory cortex (SSC), frontal cortex (FC), hippocampus (HC), thalamus (TH), liver, and heart. 28 day post-injection rats were sacrificed, and tissues collected (brain, spinal cord, heart, liver). Tissues were flash frozen and prepared for RT-qPCR detection of target housekeeping gene mRNA knockdown.
To characterize the amount of mRNA present in tissue samples from rats treated with SORT1 peptide 3 conjugates following the 28-day dosing regimen, control rats were injected with an equivalent volume of artificial cerebrospinal fluid (aCSF) as a comparative negative control.

[2] = system: housekeeping gene mRNA; assay: Mouse CNS delivery, intrathecal, 7-day (RT-qPCR); type: in vivo; conditions: IT dosing
Protocol: These conjugates were administered to C57BL/6 mice intrathecally (IT), by injection into the spinal canal, for 7 days at 150 μg of siRNA. The delivery efficacy of the various peptide conjugates was measured by measuring the amount of the housekeeping gene mRNA remaining in tissue samples at the end of the 7-day dosing regimen via RT-qPCR of samples from various parts of the mouse CNS: lumbar spinal cord (LSC; FIG. 24A), brainstem (BS; FIG. 24B), cerebellum (CB; FIG. 24C), frontal cortex (FC; FIG. 24D), somatosensory cortex (SSC; FIG. 24E), hippocampus (HC; FIG. 24F), thalamus (TH;
FIG. 24G), liver (FIG. 24H), and heart (FIG. 24I). 7 days post-injection mice were sacrificed, and tissues collected (brain, spinal cord, heart, liver). Tissues were flash frozen and prepared for RT-qPCR detection of target housekeeping gene mRNA knockdown (quantified below in Table 19). Furthermore, histological studies were performed in the brain and cervical spinal cord. In situ hybridization using miRNAscope and a probe that binds the housekeeping gene siRNA was used to assess the localization of the SORT1 peptide conjugates in cross sections of the brain and cervical spinal cord.
To characterize the amount of mRNA present in tissue samples following 7 days from mice treated with SORT1 peptide conjugates, control mice were injected with an equivalent volume of artificial cerebrospinal fluid (aCSF) as a comparative negative control.

[3] = system: housekeeping gene mRNA; assay: Mouse CNS delivery, intracerebroventricular, 14/60-day (RT-qPCR); type: in vivo; conditions: for ICV % housekeeping gene knockdown relative to aCSF: 14-day, ICV dosing
Protocol: The delivery of the SORT1 peptide conjugates was further tested over longer dosing regimens of 14 days and 60 days. […] The delivery of the siRNA-peptide-conjugated was measured at the end of the 14- or 60-day dosing regimen via RT-qPCR of samples from various parts of the mouse CNS: lumbar spinal cord (LSC; FIGS. 25A and 25B), brainstem (BS; FIGS. 25C and 25D), cerebellum (CB; FIGS. 25E and 25F), frontal cortex (FC; FIGS. 26A and 26B), somatosensory cortex (SSC; FIGS. 26C and 26D), hippocampus (HC; FIGS. 26E and 26F), thalamus (TH; FIGS. 27A and 27B), liver (FIGS. 27C and 27D), and heart (FIGS. 27E and 27F). 14- and 60-days post-injection mice were sacrificed, and tissues collected (brain, spinal cord, heart, liver). Tissues were flash frozen and prepared for RT-qPCR detection of target housekeeping gene mRNA knockdown (quantified below in Table 20).

[4] = biological target: T1, cyno SORT1 (76-753)-His (cyno, UniProt A0A2K5VHG2 74-751); assay: SPR (Biacore 8K), SORT1 on CM5 chip, unconjugated peptide with conjugation handles as analyte, 1:1 model
T1 construct: range 76-753; Amine-coupled to CM5 chip for SPR
T1 sequence: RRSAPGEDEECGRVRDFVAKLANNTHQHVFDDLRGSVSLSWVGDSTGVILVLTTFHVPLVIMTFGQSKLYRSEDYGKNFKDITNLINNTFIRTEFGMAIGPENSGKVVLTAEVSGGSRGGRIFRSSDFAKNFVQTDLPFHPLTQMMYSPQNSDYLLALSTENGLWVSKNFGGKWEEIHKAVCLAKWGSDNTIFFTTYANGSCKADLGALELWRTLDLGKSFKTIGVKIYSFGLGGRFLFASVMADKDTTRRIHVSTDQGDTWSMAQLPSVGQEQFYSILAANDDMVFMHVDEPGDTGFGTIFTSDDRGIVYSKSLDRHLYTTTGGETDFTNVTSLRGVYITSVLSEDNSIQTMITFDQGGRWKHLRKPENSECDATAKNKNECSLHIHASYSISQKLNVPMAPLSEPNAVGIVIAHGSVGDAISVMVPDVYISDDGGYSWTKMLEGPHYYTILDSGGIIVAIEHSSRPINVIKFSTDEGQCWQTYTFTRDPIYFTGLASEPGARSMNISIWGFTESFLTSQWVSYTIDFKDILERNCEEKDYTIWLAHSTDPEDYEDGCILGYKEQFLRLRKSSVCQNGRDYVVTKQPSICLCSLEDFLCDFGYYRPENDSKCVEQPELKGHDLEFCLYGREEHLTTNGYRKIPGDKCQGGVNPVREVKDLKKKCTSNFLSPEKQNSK
Protocol: (§1) SPR analysis was performed on Series S CM5 chips (Cytiva) using a Biacore 8K instrument (Cytiva). Sensorgrams were double-referenced by subtracting the response on both a reference flow cell and a blank sample. Human SORT1 (78-755)-His (Acrobiosystems), human SORT1 (78-755)-His(GenScript), mouse SORT1 (76-753)-His (R&D Systems), rat SORT1 (76-752)-His (GenScript), and cyno SORT1 (76-753)-His (GenScript) were diluted to 20-60 μg/mL in 10 mM sodium acetate pH 4.5 buffer and immobilized onto Series S CM5 chips using amine coupling at a flow rate of 10 μL/min for 45-100 s.
(§2) Ten start-up cycles and a blank cycle preceded each analysis run. The runs were performed by sequential injections of analyte (0-20 nM, 3-fold serial dilutions) with a 90 s association and 900 s dissociation at a flow rate of 30 μL/min, followed by two regeneration cycles with 2 M MgCl2 for 90 s at a flow rate of 10 μL/min. […] Five start-up cycles and a blank cycle preceded each analysis run. The runs were performed by sequential injections of analyte (0-25 nM) with a 150 seconds (s) association and 300 s dissociation at a flow rate of 30 μL/min, followed by a regeneration with 2 M MgCl₂ for 200 s at a flow rate of 10 μL/min. The kinetic rate constants (kₐ and kd) and the equilibrium binding constant (Kd) were calculated using a 1:1 kinetic binding model on the Biacore Insight Evaluation Software (Cytiva).
(§3) SPR analysis was performed on Series S CM5 chips (Cytiva) using a Biacore 8K instrument (Cytiva). Sensorgrams were double-referenced by subtracting the response on both a reference flow cell and a blank sample. The SPR analysis was conducted using four different SORT1 species: Human SORT1, Mouse SORT1, Rat SORT1, and Cyno SORT1. The samples were prepared according to the general procedure described above herein. The kinetic rate constants (ka and […]) and the equilibrium binding constant (Kd) were calculated using a 1:1 kinetic binding model on the Biacore Insight Evaluation Software (Cytiva).

[5] = biological target: T2, rat SORT1 (76-752)-His (rat, UniProt O54861 76-752); assay: as above
T2 construct: range 76-752; Amine-coupled to CM5 chip for SPR
T2 sequence (looked up): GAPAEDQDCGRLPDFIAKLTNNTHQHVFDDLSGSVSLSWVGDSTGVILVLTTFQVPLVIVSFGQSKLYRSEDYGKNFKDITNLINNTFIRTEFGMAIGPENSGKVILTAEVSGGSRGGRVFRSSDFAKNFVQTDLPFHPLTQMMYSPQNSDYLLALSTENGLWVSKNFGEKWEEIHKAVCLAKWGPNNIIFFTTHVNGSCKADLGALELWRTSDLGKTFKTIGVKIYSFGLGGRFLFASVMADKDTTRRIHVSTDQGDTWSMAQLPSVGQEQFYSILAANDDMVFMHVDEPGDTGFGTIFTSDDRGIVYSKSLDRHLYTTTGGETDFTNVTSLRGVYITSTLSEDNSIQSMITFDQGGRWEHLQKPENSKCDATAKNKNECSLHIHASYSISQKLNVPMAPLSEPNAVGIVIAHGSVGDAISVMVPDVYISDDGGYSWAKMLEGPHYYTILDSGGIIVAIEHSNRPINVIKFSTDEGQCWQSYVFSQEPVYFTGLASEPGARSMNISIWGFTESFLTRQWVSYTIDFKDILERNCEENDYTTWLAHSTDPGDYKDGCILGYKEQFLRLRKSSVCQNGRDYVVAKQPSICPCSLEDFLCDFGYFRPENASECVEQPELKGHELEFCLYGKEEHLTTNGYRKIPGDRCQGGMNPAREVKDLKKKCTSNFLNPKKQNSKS
Protocol: as §1, §2, §3

[6] = biological target: T3, Human SORT1 (78-755)-His (human, UniProt Q99523 78-755); assay: as above
T3 construct: range 78-755; Amine-coupled to CM5 chip for SPR; Two suppliers are named (Acrobiosystems, GenScript)
T3 sequence (looked up): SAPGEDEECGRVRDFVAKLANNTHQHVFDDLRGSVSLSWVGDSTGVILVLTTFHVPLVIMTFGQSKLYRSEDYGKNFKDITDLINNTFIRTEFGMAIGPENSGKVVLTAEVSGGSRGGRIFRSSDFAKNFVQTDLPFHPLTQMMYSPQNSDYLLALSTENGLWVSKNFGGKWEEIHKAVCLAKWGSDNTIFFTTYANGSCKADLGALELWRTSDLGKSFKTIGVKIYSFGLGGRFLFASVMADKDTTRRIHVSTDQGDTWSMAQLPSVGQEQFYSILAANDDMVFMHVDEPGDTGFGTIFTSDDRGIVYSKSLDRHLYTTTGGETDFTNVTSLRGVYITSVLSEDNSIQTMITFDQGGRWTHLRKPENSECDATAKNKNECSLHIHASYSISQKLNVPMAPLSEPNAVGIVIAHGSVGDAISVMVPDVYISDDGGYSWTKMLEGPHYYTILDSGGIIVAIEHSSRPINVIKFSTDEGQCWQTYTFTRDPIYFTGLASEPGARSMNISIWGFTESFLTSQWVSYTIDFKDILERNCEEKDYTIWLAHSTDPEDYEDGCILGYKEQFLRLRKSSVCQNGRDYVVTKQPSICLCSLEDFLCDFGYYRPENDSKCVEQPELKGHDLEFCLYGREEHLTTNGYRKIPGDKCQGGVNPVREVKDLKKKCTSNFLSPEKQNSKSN
Protocol: as §1, §2, §3

Molecule: SORT1 peptide 3 conjugate (RWCENKR[Nle]FTCRQ[Tle][tBuAla]; disulfide 3-11 (inferred); not fully specified (residue 6); printed as RWCENKR(Nle)FTCRQ(B13)(F02); also: conjugated via a linker to siRNA targeting a housekeeping gene mRNA, attachment presumably at the introduced Lys)
- housekeeping gene mRNA in the CNS relative to the aCSF control [1]: significantly reduced
- IT % housekeeping gene knockdown relative to aCSF ([2]; BS): 77.0%
- IT % housekeeping gene knockdown relative to aCSF ([2]; CB): 53.6%
- IT % housekeeping gene knockdown relative to aCSF ([2]; FC): 50.1%
- IT % housekeeping gene knockdown relative to aCSF ([2]; HC (deep brain)): 66.6%
- IT % housekeeping gene knockdown relative to aCSF ([2]; Heart): 47.0%
- IT % housekeeping gene knockdown relative to aCSF ([2]; LSC, 150 μg siRNA): 94.7%
- IT % housekeeping gene knockdown relative to aCSF ([2]; Liver): 0.0%
- IT % housekeeping gene knockdown relative to aCSF ([2]; SSC): 61.4%
- IT % housekeeping gene knockdown relative to aCSF ([2]; TH (deep brain)): 33.4%
- ICV % housekeeping gene knockdown relative to aCSF ([3]; BS): 79.6%
- ICV % housekeeping gene knockdown relative to aCSF ([3]; CB): 66.6%
- ICV % housekeeping gene knockdown relative to aCSF ([3]; FC): 72.6%
- ICV % housekeeping gene knockdown relative to aCSF ([3]; HC (deep brain)): 72.1%
- ICV % housekeeping gene knockdown relative to aCSF ([3]; Heart): 7.9%
- knockdown of the target gene in peripheral tissues (heart and liver) relative to aCSF ([3]; ICV, after 14 days): No significant knockdown
- ICV % housekeeping gene knockdown relative to aCSF ([3]; LSC, 100 μg siRNA): 84.8%
- ICV % housekeeping gene knockdown relative to aCSF ([3]; Liver): 8.7%
- ICV % housekeeping gene knockdown relative to aCSF ([3]; SSC): 72.6%
- ICV % housekeeping gene knockdown relative to aCSF ([3]; TH (deep brain)): 76.2%

B1: SORT1 peptide 3 (w/conjugation handles), unconjugated (peptide)
peptide: RWCENK(conjugation handle)R[Nle]FTCRQ[Tle][tBuAla]
modifications: disulfide 3-11 (inferred); reading uncertain; also: K6 conjugation handle not given here, printed as RWCENKR(Nle)FTCRQ(B13)(F02)
- Kd [4]: 191 pM
- Kd [5]: 1160 pM
- Kd [6]: 168 pM
